Among the data in PubChem BioAssay (NCI) are TGI and GI50 values, retold here.

Several values for one entry are separate records, joined by “and”; a condition that tells them apart may be missing. Identical values can stand only once.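 Exposure lasted 48 hours, with cells grown in 96-well plates and compounds tested at five concentrations. The concentration for 50% growth inhibition is given as GI50. TGI denotes the concentration required for complete inhibition of growth.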 A value given as a limit tells only on which side of the number the result lay.

Among the test systems are M19-MEL melanoma; SNB-78 CNS; NCI-H460 lung; HT29 colon; OVCAR-5 ovarian; RXF 393 renal; A498 renal; HCT-15 colon; K-562 leukemia; T-47D breast.
Common to all, as to assay: NCI-60 cell line screen, 48 h

`N#CC(/C(=N/NC(=O)C(=O)NN)C(=O)Nc1nc([N+](=O)[O-])cs1)c1ccc(Cl)cc1` (stereo not drawn): the TGI with M19-MEL melanoma, in the assay on SNB-78 CNS, in the assay on NCI-H460 lung, in the assay with HT29 colon, in the assay on OVCAR-5 ovarian and in the assay on RXF 393 renal was > 100 µM throughout.
For the molecule `CC(=O)Oc1cc(C)c2c(c1OC(C)=O)CC1(O2)[C@@H](C)CCC2[C@@]3(C)CC[C@H](OC(C)=O)C(C)(C)C3CC[C@]21C` (stereo partly drawn), the TGI in the assay with A498 renal came to 21.4 µM; in the assay with HCT-15 colon, 13 µM; in the assay on M19-MEL melanoma, 5.04 µM; in the assay with SNB-78 CNS it was 4.64 µM; with NCI-H460 lung, 10.8 µM; in the assay with HT29 colon it was 19.6 µM. The values for the TGI in the assay with OVCAR-5 ovarian and in the assay on RXF 393 renal were 17.4 µM and 2.84 µM, respectively.
For the molecule `COC(c1cccc(C(O)(C(F)(F)F)C(F)(F)F)c1)(C(F)(F)F)C(F)(F)F`, the TGI was 34.4 µM in the assay with A498 renal; 53.9 µM in the assay with HCT-15 colon; 30.5 µM with M19-MEL melanoma; 41.5 µM in the assay on NCI-H460 lung; 31.6 µM in the assay with HT29 colon; 32.4 µM with OVCAR-5 ovarian. Also, the TGI in the assay on RXF 393 renal came out at 35.9 µM.
`CSc1cccc(-n2c3nc(=O)n(C)c(=O)c-3nc3ccccc32)c1`: the TGI in the assay on A498 renal was found to be 25.3 µM; in the assay on HCT-15 colon it was 23.3 µM; in the assay on M19-MEL melanoma, 5.03 µM; in the assay on SNB-78 CNS, 43.7 µM; in the assay with NCI-H460 lung it was 10.2 µM; in the assay with HT29 colon, 15.9 µM. Also, the figures for the TGI in the assay with OVCAR-5 ovarian and in the assay with K-562 leukemia were 32 µM and 32.5 µM, respectively.
As for `CC(=O)O[C@@]12CO[C@@H]1C[C@H](O)[C@@]1(C)C(=O)[C@H](O)C3=C(C)[C@@H](OC(=O)[C@H](O)[C@@H](NC(=O)OC(C)(C)C)c4ccccc4)C[C@@](O)([C@@H](OC(=O)c4ccccc4)[C@H]21)C3(C)C`, the GI50 in the assay on A498 renal is 0.0518 µM; in the assay on HCT-15 colon, 0.0656 µM; with M19-MEL melanoma, 0.0114 µM; in the assay with NCI-H460 lung, 0.000351 µM; in the assay on HT29 colon it was 0.00746 µM and 0.00257 µM; in the assay with RXF 393 renal, 0.0252 µM and 0.0165 µM. Besides, the GI50 in the assay on K-562 leukemia was 0.0147 µM and 0.0122 µM. Further, the TGI was 56.1 µM in the assay on A498 renal; 17.1 µM with HCT-15 colon; 21.2 µM in the assay on M19-MEL melanoma; 41 µM in the assay with NCI-H460 lung; 71.9 µM in the assay with K-562 leukemia.
`CCCCCCCC(=O)NCC(O)CNC(=O)CCCCCCC`: the TGI in the assay on A498 renal, in the assay on HCT-15 colon, in the assay with M19-MEL melanoma, in the assay on SNB-78 CNS, with NCI-H460 lung and in the assay on HT29 colon was > 100 µM in each case. Moreover, the TGI in the assay with OVCAR-5 ovarian, in the assay on RXF 393 renal and in the assay on K-562 leukemia was > 100 µM throughout.
With `C/C=C/C1=C(Cl)C(=O)[C@@H](Cl)[C@@]1(O)C(=O)OC`, the TGI in the assay on A498 renal was 14.3 µM; in the assay with HCT-15 colon it was 4.43 µM; in the assay on M19-MEL melanoma, 10.1 µM; in the assay on SNB-78 CNS, 39.4 µM; in the assay with NCI-H460 lung, 15.2 µM; in the assay with HT29 colon it was 15.4 µM. For the same molecule, the TGI is 24.5 µM in the assay on OVCAR-5 ovarian, 4.76 µM with RXF 393 renal and 14.4 µM with K-562 leukemia.
As to `Nc1nc2sc3ccccc3c(=O)n2n1`, the TGI in the assay on HCT-15 colon, in the assay with SNB-78 CNS, in the assay on NCI-H460 lung, with HT29 colon, in the assay with OVCAR-5 ovarian and with RXF 393 renal was > 100 µM in each case. In addition, the TGI in the assay on K-562 leukemia was > 100 µM.
Regarding `CCN(CC)CCCn1cnc2ncccc2c1=O`, the TGI with M19-MEL melanoma, with SNB-78 CNS, with NCI-H460 lung, in the assay with HT29 colon, in the assay with OVCAR-5 ovarian and in the assay with RXF 393 renal was > 100 µM in each case. Moreover, the TGI in the assay with K-562 leukemia is > 100 µM.
`CC(=O)N1c2ccccc2C2=CC3C4C(=O)N(c5ccccc5)C(=O)C4C21C1C(=O)N(c2ccccc2)C(=O)C31` (stereo not drawn): the TGI with A498 renal, in the assay on HCT-15 colon, in the assay with SNB-78 CNS, in the assay on NCI-H460 lung, in the assay on HT29 colon and in the assay on OVCAR-5 ovarian was > 100 µM each time. Moreover, the TGI with K-562 leukemia is > 100 µM.
`Cc1noc2cccc(OCc3ccccc3)c12`: the TGI in the assay with HCT-15 colon, in the assay on M19-MEL melanoma, in the assay on SNB-78 CNS, in the assay on NCI-H460 lung, in the assay with HT29 colon and in the assay with OVCAR-5 ovarian was > 100 µM in each case. The TGI in the assay with RXF 393 renal and with K-562 leukemia was > 100 µM in each case.
On to `COc1ccc2c(c1)C(=O)N1CCOC1C2C(=O)O` (stereo not drawn), for which the TGI with A498 renal, in the assay with HCT-15 colon, in the assay with M19-MEL melanoma, with SNB-78 CNS, in the assay with NCI-H460 lung and with HT29 colon was > 100 µM in each case. The TGI in the assay with OVCAR-5 ovarian and with K-562 leukemia was > 100 µM each time.
As to `CCC[CH2][Sn]([CH2]CCC)([O]C(=O)c1cc(F)ccc1F)[O][Sn]([CH2]CCC)([CH2]CCC)[O]C(=O)c1cc(F)ccc1F`, the GI50 in the assay on A498 renal is 0.238 µM; with T-47D breast, 0.0222 µM; with HCT-15 colon, 0.254 µM; in the assay on M19-MEL melanoma it was 0.0854 µM; in the assay with SNB-78 CNS it was 0.222 µM; with NCI-H460 lung, 1.03 µM. In addition, the GI50 in the assay with HT29 colon was 0.899 µM; in the assay with OVCAR-5 ovarian, 1.76 µM; in the assay with RXF 393 renal, 0.0472 µM; with K-562 leukemia, 0.0372 µM. In addition, the TGI in the assay on A498 renal is 0.631 µM; in the assay with T-47D breast, 0.207 µM; in the assay with HCT-15 colon, 0.87 µM; in the assay with M19-MEL melanoma it was 0.459 µM; with SNB-78 CNS, 1.59 µM; in the assay with NCI-H460 lung, 2.48 µM. Moreover, the TGI with HT29 colon is 2.21 µM; with OVCAR-5 ovarian, 3.16 µM; in the assay on RXF 393 renal, 0.191 µM; with K-562 leukemia, 6.22 µM.
Regarding `O=C(O)C1=CCCc2ccc3ccccc3c21`, the TGI with A498 renal, with HCT-15 colon, with M19-MEL melanoma, with SNB-78 CNS, with NCI-H460 lung and with HT29 colon was > 100 µM each time. In addition, the TGI with OVCAR-5 ovarian, in the assay on RXF 393 renal and in the assay with K-562 leukemia was > 100 µM throughout.
As for `[Cl][Sn]([Cl])([c]1ccccc1)[c]1ccccc1`, the GI50 in the assay on HCT-15 colon is 10.3 µM; with M19-MEL melanoma it was 19.5 µM; in the assay on SNB-78 CNS, 9.33 µM; with HT29 colon, 16.1 µM; in the assay on OVCAR-5 ovarian, 15.8 µM; in the assay on RXF 393 renal it was 2.79 µM. Moreover, in the assay on K-562 leukemia, the GI50 was 2.69 µM. In addition, the TGI in the assay on HCT-15 colon worked out at 23.2 µM; with M19-MEL melanoma, 68.6 µM; with SNB-78 CNS, 56.7 µM; in the assay with HT29 colon, 30.5 µM; in the assay on OVCAR-5 ovarian it was 29.3 µM; in the assay with K-562 leukemia, 12.3 µM.
On to `O=C(Nc1ccc(F)cc1)Nc1ccccc1CNc1nc(Nc2ccc(OCCN3CCCC3)cc2)ncc1Cl`, for which the GI50 is 1.42 µM with A498 renal; 1.48 µM with T-47D breast; 1.58 µM with HCT-15 colon; 1.15 µM in the assay with NCI-H460 lung; 1.49 µM in the assay with HT29 colon; 1.76 µM in the assay with OVCAR-5 ovarian. For the same molecule, the GI50 in the assay on RXF 393 renal was 0.895 µM; in the assay on K-562 leukemia, 1.2 µM. Moreover, the TGI with A498 renal was found to be 8.21 µM; in the assay with T-47D breast, 4.28 µM; with HCT-15 colon, 6.06 µM; in the assay on NCI-H460 lung, 2.7 µM; with HT29 colon it was 50 µM; in the assay with OVCAR-5 ovarian it was 6.88 µM. In addition, the TGI in the assay with RXF 393 renal came to 1.88 µM; in the assay on K-562 leukemia, 3.06 µM.
As to `CCOC(=O)c1sc2ncn(Cc3cccc(Br)c3)c(=O)c2c1C`, the GI50 in the assay on A498 renal was 18.2 µM; in the assay with T-47D breast, 36.5 µM; in the assay on HCT-15 colon, 62.4 µM; in the assay with NCI-H460 lung it was 77.3 µM; in the assay with HT29 colon, 87.8 µM; with OVCAR-5 ovarian it was > 100 µM. Besides, the GI50 with RXF 393 renal is 29 µM; with K-562 leukemia, 16.8 µM. Besides, the TGI in the assay with A498 renal is 80.1 µM; in the assay on T-47D breast it was > 100 µM; with HCT-15 colon it was > 100 µM; in the assay on NCI-H460 lung it was > 100 µM; in the assay with HT29 colon it was > 100 µM; in the assay on OVCAR-5 ovarian, > 100 µM. For the same molecule, the TGI in the assay on RXF 393 renal and in the assay with K-562 leukemia was > 100 µM each time.
With `O=c1c2c3c(sc2n2c(-c4cc(-c5ccccc5)no4)nnc2n1Cc1ccccc1)CCCC3`, the GI50 in the assay with A498 renal was 36.5 µM; in the assay on T-47D breast it was 3.55 µM; with HCT-15 colon, 11.6 µM; in the assay on NCI-H460 lung, 12.6 µM; in the assay with HT29 colon it was 29.2 µM; with OVCAR-5 ovarian, 91.2 µM. Also, the GI50 in the assay with RXF 393 renal is 4.13 µM; in the assay with K-562 leukemia it was 7.01 µM. Further, the TGI with A498 renal is > 100 µM; in the assay with T-47D breast, 22.1 µM; with HCT-15 colon, > 83.4 µM; in the assay with NCI-H460 lung, 36.8 µM; in the assay on HT29 colon, > 100 µM; in the assay with OVCAR-5 ovarian, > 100 µM. Besides, the values for the TGI in the assay on RXF 393 renal and in the assay with K-562 leukemia were 26.7 µM and > 68.1 µM, respectively.
As to `CCOC(=O)c1c(-c2ccccc2)oc(-c2ccccc2)c1C(=O)OCC`, the TGI with A498 renal, with M19-MEL melanoma, in the assay on SNB-78 CNS, in the assay on HT29 colon, with OVCAR-5 ovarian and in the assay on RXF 393 renal was > 100 µM each time. Also, in the assay with K-562 leukemia, the TGI is > 100 µM.
